Measured values reported in patent US12202841B2, “Therapeutic agents for enhancing epithelial and/or endothelial barrier function” (ARTUS THERAPEUTICS, INC., priority 2022, dated 2025).
Entries after “also recorded” stand apart in the source; their conditions may differ.

How the values were obtained:
[1] = test system: TNBS-induced colitis in mice; assay: Murine TNBS model of ulcerative colitis; type: in vivo; conditions: TNBS mouse model of UC
Protocol: FIGS. 2A-D illustrates that UAS03 is efficacious in a mouse 2,4,6-trinitrobenzenesulfonic acid (TNBS) model when administered either pre- or post-TNBS treatment. Pre-treatment: Mice (n=10 per group) were given UAS03 orally QD (20 mg/kg) for 7 days followed by administration of TNBS. Mice were euthanized 72 h post-TNBS treatment. Post-treatment: Mice (n=10 per group) received UAS03 QD (20 mg/kg) 24, 48, and 72 h post-TNBS. A) Ratio of colon weight/length. B) Intestinal permeability evaluated using a FITC-dextran leakage assay. C) Serum levels of TNF-α measured using a standard ELISA method. D) Claudin-4 (Cldn4) expression in mouse colons. […] Error bars, ±SEM; ***p<0.001.
Intra-rectal administration of 2,4,6-Trinitrobenzenesulfonic acid (TNBS) induces CD4^+-dependent colitis in mice resulting in increased intestinal permeability, shortening of colons, and increased inflammation^70. […] The symptoms that were reversed included body weight loss, colon weight/length ratio (FIG. 2A), increased gut permeability (FIG. 2B), and enhanced levels of inflammatory cytokines (FIG. 2C)^44. […] The beneficial effects of UAS03 in TNBS-treated mice were not observed in either AhR^−/− or Nrf2^−/− mutant mice^44. […] UAS03 was also efficacious in both acute and chronic dextran sodium sulfate (DSS)-induced^71,72 colitis models^44. […]

Cyp1A1 = assay: Activation of Cyp1A1 expression; type: cell-based
Protocol: (§1) Step 2: Selected compounds from step 1 were tested at a range of concentrations for activation of Cyp1A1 mRNA levels using qRT-PCR, for activation of Cyp1A1 enzymatic activity (ethoxyresorufin-O-deethylase (EROD) assay), or activation of an AhR-reporter gene driven by a so-called dioxin-response element (DRE) using commercially available kits. Activation of Cyp1A1 mRNA levels, activation of Cyp1A1 enzymatic activity, or activation of an AhR reporter gene construct driven by a DRE is generally considered to be indicative of a compound's ability to function as an AhR ligand. When activated by a ligand, cytosolic AhR translocates to the nucleus and dimerizes with the AhR nuclear translocator protein ARNT. The AhR/ARNT complex then binds to DREs to activate gene transcription.

[2] = test system: murine DSS model of ulcerative colitis; assay: Murine DSS model of ulcerative colitis (acute); type: in vivo, mouse; conditions: for efficacy in the murine DSS model of colitis / DSS-elicited body weight loss / disease activity index (DAI) / colon length: 20 mg/kg oral gavage on days 4, 6, 8, 10; for efficacy in the murine DSS model of colitis: 2.5% DSS, C57BL/6 mice; for DSS-elicited body weight loss: FIG. 6E; for disease activity index (DAI): FIG. 6F; for colon length: day 12, FIG. 6B, 6C
Protocol: FIGS. 6A-F illustrate efficacy of ARTX-339, ARTX-405A, ARTX-413, and ARTX-425P1 in the murine DSS model of ulcerative colitis. A. C57BL/6 mice (7-8-week old mice) were supplied with 2.5% DSS in their drinking water for 7 days. Starting on day 4 post DSS treatment, mice were dosed once every other day with 100 μL vehicle (0.25% sodium carboxymethylcellulose used in the formulation of ARTX compounds), or 100 μL ARTX-339, ARTX-405A, ARTX-413, or ARTX-425P1 at 20 mg/kg body weight by oral gavage on days 4, 6, 8, and 10. Mice were euthanized on day 12. FITC dextran was administered to the mice via oral gavage 4 hours preceding euthanization. Following euthanization, colons were dissected, and their length measured. B. Measurements of colon length. C. Photographs of dissected colons. D. Measurement of FITC-dextran in serum following euthanization. […] Higher levels of serum FITC-dextran following DSS-treatment is an indication of a loss of barrier function. E. Body weight was measured every other day starting at day 0 with the initiation of DSS treatment. F. Disease activity index (DAI) scores were assigned every other day. The higher the DAI score, the worse the symptoms. **** indicates p<0.0001; *** indicates p<0.001; ** indicates=p<0.01.
A murine dextran sodium sulfate (DSS)-elicited model of ulcerative colitis was utilized to measure the efficacy of compounds in vivo. Oral administration of DSS in drinking water, a chemical colitogen with anticoagulant properties, leads to disruption of gut epithelium causing enhanced gut permeability, inflammation, and severe damage of gut barrier function^71,72. The rationale for using the murine DSS^71,72 model of UC is that it is a well-established gut epithelial barrier disrupting model that can be used to model both acute and chronic UC^70,71.
Starting on day 4 post DSS treatment, mice were dosed once every other day with 100 μL vehicle (0.25% sodium carboxymethylcellulose used in the formulation of ARTX compounds), or 100 μL ARTX-339, ARTX-405A, ARTX-413, or ARTX-425P1 at 20 mg/kg body weight by oral gavage on days 4, 6, 8, and 10. Mice were euthanized on day 12. FITC dextran was administered to the mice via oral gavage 4 hours prior to euthanization. Following euthanization, colons were dissected, and their lengths were measured.

Acute toxicity in rats = conditions: rat, in vivo
From the text: (§2) However, potential genotoxicity of ARTX-86 is consistent with its planar structure, which may allow ARTX-86 to intercalate into the DNA double helix. It's possible that reactive metabolites of ARTX-86 are being formed by the S9 fraction and the ability of ARTX-86 to intercalate into the DNA helix delivers the radicals or other toxic metabolites directly to the DNA.

hERG = hERG (Homo sapiens, UniProt Q12809); assay: hERG assay
Protocol: (§3) Step 4: Toxicity studies, including hERG and Ames tests, are conducted on compounds.

[3] = Preliminary PK studies in rats; conditions: rat, in vivo
From the text: as §2

Salmonella strains = assay: Ames test
Protocol: as §3, §2

AhR signaling pathway [4] = assay: Luciferase AhR-reporter gene (DRE) assay in human hepatic cells; type: cell-based; conditions: FIG. 7A
Protocol: as §1
(§4) In these experiments, human hepatic cells (FIG. 7A) or human intestinal epithelial cells (FIG. 7B) containing a luciferase AhR-reporter gene construct driven by a so-called dioxin-response element (DRE) were treated with various concentrations of ARTX-413 or with various concentrations of the well-studied AhR ligand β-naphthoflavone (BNF) using commercially available kits. Activation of Cyp1A1 mRNA levels, activation of Cyp1A1 enzymatic activity, or activation of an AhR reporter gene construct driven by a DRE is generally considered to be indicative of a compound's ability to function as an AhR ligand.

AhR signaling pathway [5] = assay: Luciferase AhR-reporter gene (DRE) assay in human intestinal epithelial cells; type: cell-based; conditions: FIG. 7B
Protocol: as §1, §4

[6] = In vitro safety pharmacology assays
[7] = pH 2.0 in the presence of gastric enzymes; cited from earlier work
[8] = test system: bone marrow derived macrophages; conditions: cited from earlier work
[9] = test system: LPS-elicited mouse peritonitis model; conditions: cited from earlier work
[10] = test system: HT-29 and Caco-2 intestinal epithelial cell lines; conditions: RNA-seq and qRT-PCR; cited from earlier work
[11] = test system: cytochrome P450 1A1 (Cyp1A1) and heme oxygenase 1 (HMOX1 or HO1) genes; conditions: cited from earlier work
[12] = test system: TNBS-induced colitis in mice; conditions: cited from earlier work
[13] = test system: DSS-induced colitis in mice; conditions: cited from earlier work
AhR = target: T1, AhR (Homo sapiens, UniProt P35869); conditions: published data; cited from earlier work
T1 sequence (P35869 11-848): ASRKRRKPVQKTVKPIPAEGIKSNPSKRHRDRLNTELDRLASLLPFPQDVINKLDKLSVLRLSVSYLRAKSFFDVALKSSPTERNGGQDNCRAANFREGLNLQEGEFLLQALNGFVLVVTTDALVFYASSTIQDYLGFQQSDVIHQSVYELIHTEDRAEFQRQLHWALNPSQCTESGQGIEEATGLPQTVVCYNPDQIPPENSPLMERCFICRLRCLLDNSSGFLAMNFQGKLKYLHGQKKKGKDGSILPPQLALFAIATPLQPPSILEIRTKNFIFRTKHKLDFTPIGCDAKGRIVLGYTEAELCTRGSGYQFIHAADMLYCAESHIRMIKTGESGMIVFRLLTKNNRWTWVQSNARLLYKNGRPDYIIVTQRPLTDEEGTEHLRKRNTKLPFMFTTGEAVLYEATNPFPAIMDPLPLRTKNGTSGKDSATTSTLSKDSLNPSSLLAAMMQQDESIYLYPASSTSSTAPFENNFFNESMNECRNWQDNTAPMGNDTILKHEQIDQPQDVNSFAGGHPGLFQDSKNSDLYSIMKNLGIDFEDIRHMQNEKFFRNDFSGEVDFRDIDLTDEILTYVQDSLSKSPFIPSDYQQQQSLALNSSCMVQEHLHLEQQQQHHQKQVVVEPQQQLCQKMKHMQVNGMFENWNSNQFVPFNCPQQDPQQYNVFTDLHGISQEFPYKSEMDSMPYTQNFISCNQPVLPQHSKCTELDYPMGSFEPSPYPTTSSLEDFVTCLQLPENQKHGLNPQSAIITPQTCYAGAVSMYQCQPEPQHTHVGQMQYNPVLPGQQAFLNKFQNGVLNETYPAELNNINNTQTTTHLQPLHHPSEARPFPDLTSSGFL

[14] = extensively tested; cited from earlier work

Chain of hERG (Q12809 whole entry): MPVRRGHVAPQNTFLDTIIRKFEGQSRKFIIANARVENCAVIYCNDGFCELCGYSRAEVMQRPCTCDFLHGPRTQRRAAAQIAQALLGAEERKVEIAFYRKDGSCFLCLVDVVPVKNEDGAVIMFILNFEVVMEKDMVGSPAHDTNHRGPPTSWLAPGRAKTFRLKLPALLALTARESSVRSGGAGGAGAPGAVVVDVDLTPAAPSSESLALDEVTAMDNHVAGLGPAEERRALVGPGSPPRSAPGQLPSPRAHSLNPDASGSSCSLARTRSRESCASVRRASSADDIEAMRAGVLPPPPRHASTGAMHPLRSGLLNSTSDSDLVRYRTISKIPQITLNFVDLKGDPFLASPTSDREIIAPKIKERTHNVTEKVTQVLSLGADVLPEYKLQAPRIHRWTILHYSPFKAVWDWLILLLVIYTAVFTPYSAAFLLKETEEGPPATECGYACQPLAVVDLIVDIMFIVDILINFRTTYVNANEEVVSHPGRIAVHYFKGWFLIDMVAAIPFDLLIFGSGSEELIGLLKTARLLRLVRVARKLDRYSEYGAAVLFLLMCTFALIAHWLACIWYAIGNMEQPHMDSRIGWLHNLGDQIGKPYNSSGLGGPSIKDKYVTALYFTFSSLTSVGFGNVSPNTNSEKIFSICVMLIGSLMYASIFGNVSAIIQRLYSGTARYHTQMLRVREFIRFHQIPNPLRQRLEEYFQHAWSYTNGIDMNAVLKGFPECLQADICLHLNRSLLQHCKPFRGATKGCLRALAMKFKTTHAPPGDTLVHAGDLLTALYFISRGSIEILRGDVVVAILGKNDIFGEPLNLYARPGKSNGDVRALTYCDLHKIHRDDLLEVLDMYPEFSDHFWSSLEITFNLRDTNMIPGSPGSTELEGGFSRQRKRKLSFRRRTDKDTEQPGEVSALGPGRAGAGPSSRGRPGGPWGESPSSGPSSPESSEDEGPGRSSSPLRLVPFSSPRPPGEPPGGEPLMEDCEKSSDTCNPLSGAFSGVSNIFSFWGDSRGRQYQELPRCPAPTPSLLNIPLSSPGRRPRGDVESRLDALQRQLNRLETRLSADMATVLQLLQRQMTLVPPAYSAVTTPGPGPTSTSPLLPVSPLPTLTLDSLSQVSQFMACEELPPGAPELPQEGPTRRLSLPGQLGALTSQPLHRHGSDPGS

With Oc1ccc2c(c1)OCc1cc(F)ccc1-2 [ARTX-86] the “efficacy compared with UAS03” value [1] was “equally efficacious as UAS03”, the “activating the expression of Cyp1A1, compared with UroA and UAS03” value (Cyp1A1) was “comparably active as UroA and UAS03” and the “efficacy compared with UAS03” value ([2]; DSS mouse model of UC) was “equally efficacious as UAS03”. For the same molecule, the NOAEL (Acute toxicity in rats) was 1000 mg/kg/day, the MTD (Acute toxicity in rats; acute toxicity) was over 2000 mg/kg and the “cardiotoxicity in hERG assay” value (hERG; up to 60 times the efficacious dose) was “not cardiotoxic”. The half-life ([3]; 20 mg/kg) was 2.22 ± 0.5 h, the Cmax ([3]; dosed at 20 mg/kg) was 92 ± 15 ng/mL and the Ames test result (Salmonella strains; one of the Salmonella strains, with / without liver S9 enzymes) was “tested positive in the presence but not the absence of liver S9 enzymes”.

With Oc1ncc2c(n1)OCc1cc(F)ccc1-2 [ARTX-413, 8-fluoro-6H-isochromeno[3,4-d]pyrimidin-3-ol] the “efficacy in the murine DSS model of colitis” value (shortened to “efficacy … of colitis”) [2] was “exhibited efficacy”, the “DSS-elicited body weight loss” value [2] was “highly effective” and the “disease activity index (DAI)” value [2] was “highly effective”. For the same molecule, the colon length [2] was “highly effective”, the “hERG inhibition / risk of cardiotoxicity” value (hERG; FIG. 8) was “low risk of cardiotoxicity” and the Ames test result (Salmonella strains; concentrations as high as 1.0 mg/mL) was “non-genotoxic”. The “activation of AhR reporter gene” value (AhR signaling pathway [4]) was “activate the AhR signaling pathway”, the “activation of AhR reporter gene” value (AhR signaling pathway [5]) was “activate the AhR signaling pathway” and the off-target effects [6] was “did not identify any significant off-target effects”.

In the case of CC(C)[C@@H]1Oc2cc(O)ccc2-c2ccc(F)cc21 (single isomer, unassigned) [ARTX-425P1], the “efficacy … of colitis” value [2] is reported as “exhibited efficacy”, the “DSS-elicited body weight loss” value [2] is reported as “highly statistically significant” and the “disease activity index (DAI)” value [2] is reported as “highly statistically significant”. The colon length [2] was “a statistically significant increase in colon length was not observed”.

For Oc1cc(O)c2c(c1)C1(CCCC1)c1cc(F)ccc1-2 [ARTX-405A, 7′-fluorospiro[cyclopentane-1,9′-fluorene]-2′,4′-diol], the “efficacy … of colitis” value [2] was “exhibited efficacy”, the “DSS-elicited body weight loss” value [2] was “highly effective” and the “disease activity index (DAI)” value [2] was “highly effective”. For the same molecule, the colon length [2] was “highly effective”.

In the case of Oc1ccc2c(c1)COc1cc(O)ccc1-2 [UAS03], the time stable [7] is listed as “at least 12 hours”, the “levels of LPS-induced TNF-α, IL-6, CXCL-1, and IL-1β” value [8] is listed as “markedly decreased” and the “levels of LPS-induced TNF-α, IL-6, CXCL-1, and IL-1β” value [9] is listed as “markedly decreased”. The “expression of tight junction proteins claudin 4, ZO-1, and occludin 1” value [10] was “upregulates”, the “expression of Cyp1A1 and HO1 genes” value [11] was “activated” and the “potency relative to UroA” value ([12]; TNBS model) was “about 10 fold”. For the same molecule, the “beneficial effects in AhR−/− or Nrf2−/− mutant mice” value ([12]; TNBS-treated AhR−/− or Nrf2−/− mice) was “not observed”, the “claudin 4 (Cldn4) expression / protein levels” value ([12]; TNBS-treated mice, colons) was “induced the expression; also recorded: reversed a dramatic decrease” and the “UC symptoms (body weight loss, colon weight/length ratio, gut permeability, inflammatory cytokines)” value ([12]; orally QD or BID for three days following TNBS, 20 mg/kg) was “dramatically reversed”. The “development of TNBS-elicited symptoms” value ([12]; pre-treated QD for 7 days at 20 mg/kg) was “blocked”, the “protection in chronic DSS model” value ([13]; 4 cycles of 2% DSS, 90 day experiment, UAS03 QD 20 mg/kg) was “protected against DSS-induced chronic colitis” and the “efficacy in acute and chronic DSS-induced colitis models” value ([13]; mouse, in vivo) was “efficacious”.

For O=c1oc2cc(O)ccc2c2ccc(O)cc12 [UroA, Urolithin A], the hydrolysis [7] is listed as “rapidly hydrolyzed”, the AhR ligand activity (AhR) is listed as “AhR ligand that activates the AhR signaling pathway” and the genotoxicity [14] is listed as “no indications of genotoxicity have been reported”.
